Source: patent US20240293364A1, “BIOMARKERS FOR CANCER THERAPY USING MDM2 ANTAGONISTS” (OTSUKA PHARMACEUTICAL CO., LTD., priority 2021, published 2024)
Blank lines part the entries; values can stand above or below the compound they belong to.

Columns and labels:
SN40R2 [1] = assay: SN40R2 growth inhibition, Protocol A (sulphorhodamine B); conditions: read-out: SN40R2 IC50 (μM) (Protocol A)
SJSA-1 [2] = assay: SJSA-1 growth inhibition, Protocol A (sulphorhodamine B)
[3] = system: multiple myeloma (MM) cells; conditions: in vitro and ex vivo; cited from earlier work
tumour growth = conditions: inducing mitochondrial effects of p53; cited from earlier work
SN40R2 [4] = assay: SN40R2 cell viability, Protocol B (CellTiter-Glo); conditions: read-out: SN40R2 IC50 (μM) (Protocol B), Protocol B
SJSA-1 [5] = assay: SJSA-1 cell viability, Protocol B (CellTiter-Glo)
human leukaemia models = conditions: by inducing MDM2 degradation; cited from earlier work
cancer cell lines = conditions: cited from earlier work

IC50 (SJSA-1 [2]; Homo sapiens, SJSA-1, read-out: SJSA-1 IC50 (μM) (Protocol A), Protocol A): 0.1 µM
Compound: CCC(O)(c1cc(F)c2c(c1)C(=O)N(Cc1ccc(C#N)cn1)[C@@]2(O[C@H]1CCOC1)c1ccc(Cl)cc1)c1ccn(C)n1 (single isomer, unassigned) [Example 336]
IC50 (SN40R2 [1]): 42 µM

Compound: c1ccc2c(CCNc3ccc(Nc4ccncc4)cc3)c[nH]c2c1 [JNJ 26854165]
activity against multiple myeloma (MM) cells [3]: potent activity

Compound: COc1cc(C(N)=O)ccc1NC(=O)[C@@H]1N[C@@H](CC(C)(C)C)[C@@]2(C(=O)Nc3cc(Cl)ccc32)[C@H]1c1cccc(Cl)c1F [RO-8994]
inhibition of tumour growth (tumour growth): inhibit tumour growth

Compound: CO[C@]1(c2ccc(Cl)cc2)c2c(F)cc(C(C)(O)c3nccs3)cc2C(=O)N1Cc1ccc(Cl)cn1 (stereo partly shown) [Example 165]
IC50 (SN40R2 [4]): 13 µM
IC50 (SJSA-1 [5]; read-out: SJSA1 IC50 (μM) (Protocol B), Protocol B): 1.4 µM

Compound: 4-{[(1R)-1-(4-chlorophenyl)-7-fluoro-5-[1-hydroxy-1-(1-methyl-1H-imidazol-4-yl)propyl]-3-oxo-1-[(3S)-oxolan-3-yloxy]-2,3-dihydro-1H-isoindol-2-yl]methyl}benzonitrile [Example 97]
IC50 (SJSA-1 [2]; read-out: SJSA-1 IC50 (μM) (Protocol A), Protocol A): 0.37 µM

Compound: CO[C@]1(c2ccc(Cl)cc2)c2c(F)cc(C(C)(O)c3ncc[nH]3)cc2C(=O)N1Cc1ccc(Cl)cn1 (stereo partly shown) [Example 163]
IC50 (SN40R2 [4]): 13 µM
IC50 (SJSA-1 [5]; Homo sapiens, SJSA-1, read-out: SJSA1 IC50 (μM) (Protocol B), Protocol B): 3.1 µM

Compound: CN1CCC(C(C)(O)c2cc(F)c3c(c2)C(=O)N(Cc2ccc(Cl)cn2)[C@@]3(OCC2(C(N)=O)CC2)c2ccc(Cl)cc2)CC1 (stereo partly shown) [Example 306]
IC50 (SN40R2 [4]): 13 µM

Compound: O=C(O)C(F)(F)F.O=C1CCC(N2Cc3c(C#CCCCNC(=O)c4ccc(NC(=O)[C@@H]5NC6(CCCCC6)[C@@]6(C(=O)Nc7cc(Cl)ccc76)[C@H]5c5cccc(Cl)c5F)cc4)cccc3C2=O)C(=O)N1 (stereo partly shown) [LE-004]
growth inhibition in human leukaemia models in mice (human leukaemia models): efficiently inhibited growth

Compound: CC(C)(C)C[C@@H]1N[C@@H](C(=O)N[C@H]2CC[C@H](O)CC2)[C@H](c2cccc(Cl)c2F)[C@]12C(=O)Nc1cc(Cl)ccc12 [MI-773]
inhibition of cell growth in cancer cell lines (cancer cell lines): potently inhibits cell growth

Compound: CO[C@]1(c2ccc(Cl)cc2)c2c(F)cc(C(C)(O)C3CCN(c4ncccn4)CC3)cc2C(=O)N1Cc1ccc(Cl)cn1 (stereo partly shown) [Example 286]
IC50 (SN40R2 [4]): 12 µM
